Experimental data reported in paper PMC6318807 (ACS chemical neuroscience, 2018).

What follows are compounds tested against EP2 receptor (Homo sapiens, UniProt P43116) (assay: TR-FRET cAMP).
Format: cell-based

EP2 receptor, sequence (P43116 whole entry): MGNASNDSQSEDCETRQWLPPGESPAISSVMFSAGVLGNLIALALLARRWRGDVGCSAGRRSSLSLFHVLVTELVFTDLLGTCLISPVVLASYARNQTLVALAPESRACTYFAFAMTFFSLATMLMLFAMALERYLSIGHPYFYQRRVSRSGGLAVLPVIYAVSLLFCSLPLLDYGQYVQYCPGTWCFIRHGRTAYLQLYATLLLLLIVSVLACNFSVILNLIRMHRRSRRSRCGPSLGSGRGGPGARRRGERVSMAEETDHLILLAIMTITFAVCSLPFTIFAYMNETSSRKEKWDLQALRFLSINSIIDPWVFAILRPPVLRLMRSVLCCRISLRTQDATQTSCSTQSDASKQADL

Row | TR-FRET cAMP; fold leftward shift of PGE2 EC50 at 20 μM compound | Compound
1 | 2.4 fold shift of PGE2 EC50 at 20 μM | CC(C)Sc1cc(N2CCOCC2)nc(-c2ccc(Cl)cc2)n1 [CID852308]
2 | 2.4 fold shift of PGE2 EC50 at 20 μM | CC(C)Sc1cc(N2CCOCC2)nc(-c2ccccc2)n1 [CID852313]
3 | 4.3 fold shift of PGE2 EC50 at 20 μM | O=C(Nc1ccccc1N1CCCCC1)c1ccc(F)cc1 [CID890517, 4-fluoro-N-(2-piperidin-1-ylphenyl)benzamide]
4 | 2.5 fold shift of PGE2 EC50 at 20 μM | CC1CCN(c2ccccc2NC(=O)c2ccc(F)cc2)CC1 [CID953673, 4-fluoro-N-(2-(4-methylpiperidin-1-yl)phenyl)benzamide]
5 | 2.5 fold shift of PGE2 EC50 at 20 μM | O=C(Nc1cccc(Cl)c1N1CCCCC1)c1ccc2c(c1)OCCO2 [CID1254488]
6 | 3.3 fold shift of PGE2 EC50 at 20 μM | Cc1ccccc1C(=O)Nc1ccccc1N1CCCCC1 [CID2340325, 2-methyl-N-(2-piperidin-1-ylphenyl)benzamide]
7 | 2.7 fold shift of PGE2 EC50 at 20 μM | COc1ccc(-c2cc(C(F)(F)F)nc(N3CCOCC3)n2)cc1OC [CID2992168, 4-[4-(3,4-dimethoxyphenyl)-6 (trifluoromethyl)pyrimidin-2-yl]morpholine]

Row | Compound | TR-FRET cAMP; fold leftward shift of PGE2 EC50 at 20 μM compound
8 | FC(F)(F)c1cc(-c2ccccc2)nc(N2CCOCC2)n1 [CID891729, 4-[4-phenyl-6-(trifluoromethyl)pyrimidin-2-yl]morpholine] | 2.4 fold shift of PGE2 EC50 at 20 μM
